Data published in ChEMBL document CHEMBL2321764, “Synthesis and antibacterial activities of new piperidine substituted (5R)-[1,2,3]triazolylmethyl and (5R)-[(4-F-[1,2,3]triazolyl)methyl] oxazolidinones” (Bioorg Med Chem Lett, 2013).
In brackets after ≈: the same amount, converted by molar mass.

target: T1, CYP1A2 (Homo sapiens, UniProt P05177); test: Inhibition of CYP1A2 (unknown origin) assessed as residual activity at 10 uM; type: ADME; conditions: read-out: INH
T1 sequence (P05177 whole entry): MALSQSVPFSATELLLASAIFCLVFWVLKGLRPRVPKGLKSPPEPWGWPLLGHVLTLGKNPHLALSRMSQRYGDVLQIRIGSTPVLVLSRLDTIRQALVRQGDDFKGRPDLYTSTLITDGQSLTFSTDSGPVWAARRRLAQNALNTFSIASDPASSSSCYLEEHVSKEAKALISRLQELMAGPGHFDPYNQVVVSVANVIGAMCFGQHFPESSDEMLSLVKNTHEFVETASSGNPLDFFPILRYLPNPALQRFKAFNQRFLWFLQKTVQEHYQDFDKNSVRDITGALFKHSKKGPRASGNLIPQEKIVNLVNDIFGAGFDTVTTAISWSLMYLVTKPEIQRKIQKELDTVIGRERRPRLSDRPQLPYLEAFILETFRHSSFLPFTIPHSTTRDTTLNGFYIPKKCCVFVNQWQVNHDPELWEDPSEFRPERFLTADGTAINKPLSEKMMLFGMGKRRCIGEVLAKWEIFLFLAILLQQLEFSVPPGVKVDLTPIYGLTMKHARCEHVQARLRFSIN

Row | Compound | activity at 10 µM [%]
1 | N#CC=C1CCN(c2ccc(N3C[C@H](Cn4cc(F)nn4)OC3=O)cc2F)CC1 | 91.8
2 | CC(C#N)=C1CCN(c2ccc(N3C[C@H](Cn4cc(F)nn4)OC3=O)cc2F)CC1 | 92.8

target: Voltage-gated inwardly rectifying potassium channel KCNH2 (Homo sapiens, UniProt Q12809); test: Inhibition of human hERG by automated patch clamp assay; conditions: not given
Sequence (Q12809 whole entry): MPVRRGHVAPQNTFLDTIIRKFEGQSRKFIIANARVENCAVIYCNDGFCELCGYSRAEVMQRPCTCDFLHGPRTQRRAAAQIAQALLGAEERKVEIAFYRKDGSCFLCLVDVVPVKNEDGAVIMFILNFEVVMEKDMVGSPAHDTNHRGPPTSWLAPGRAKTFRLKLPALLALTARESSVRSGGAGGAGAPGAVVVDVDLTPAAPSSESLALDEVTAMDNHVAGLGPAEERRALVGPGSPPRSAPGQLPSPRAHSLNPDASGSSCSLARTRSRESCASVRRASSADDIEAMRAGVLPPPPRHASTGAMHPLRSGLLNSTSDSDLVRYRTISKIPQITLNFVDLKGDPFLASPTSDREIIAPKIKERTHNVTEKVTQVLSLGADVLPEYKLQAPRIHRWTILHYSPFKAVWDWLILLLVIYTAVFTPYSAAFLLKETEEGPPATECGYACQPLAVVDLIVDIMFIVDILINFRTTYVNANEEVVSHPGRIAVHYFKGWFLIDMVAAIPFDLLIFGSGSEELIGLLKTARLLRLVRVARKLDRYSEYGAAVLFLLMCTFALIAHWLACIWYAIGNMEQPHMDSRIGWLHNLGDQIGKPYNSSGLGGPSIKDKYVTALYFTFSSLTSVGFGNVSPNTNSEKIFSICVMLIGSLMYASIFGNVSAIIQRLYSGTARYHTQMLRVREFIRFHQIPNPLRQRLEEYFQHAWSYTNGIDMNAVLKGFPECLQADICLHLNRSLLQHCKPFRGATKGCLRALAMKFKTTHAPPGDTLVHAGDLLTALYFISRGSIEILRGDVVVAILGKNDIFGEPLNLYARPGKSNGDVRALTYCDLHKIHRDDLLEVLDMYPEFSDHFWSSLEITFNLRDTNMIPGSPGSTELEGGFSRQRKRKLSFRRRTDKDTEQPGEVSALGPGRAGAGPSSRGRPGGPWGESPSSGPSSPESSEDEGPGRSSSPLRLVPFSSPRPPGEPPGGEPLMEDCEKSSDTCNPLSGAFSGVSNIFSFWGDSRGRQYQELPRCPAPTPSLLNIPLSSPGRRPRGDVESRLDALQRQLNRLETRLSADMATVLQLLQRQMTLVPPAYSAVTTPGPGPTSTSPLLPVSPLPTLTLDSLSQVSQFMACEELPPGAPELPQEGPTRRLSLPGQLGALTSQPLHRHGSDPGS

Row | Compound | IC50 [µM]
3 | CC(C#N)=C1CCN(c2ccc(N3C[C@H](Cn4cc(F)nn4)OC3=O)cc2F)CC1 | 21

target: CYP3A4 (Homo sapiens, UniProt P08684); test: Inhibition of CYP3A4 (unknown origin) assessed as residual activity at 10 uM; type: ADME; conditions: read-out: INH
Sequence (P08684 whole entry): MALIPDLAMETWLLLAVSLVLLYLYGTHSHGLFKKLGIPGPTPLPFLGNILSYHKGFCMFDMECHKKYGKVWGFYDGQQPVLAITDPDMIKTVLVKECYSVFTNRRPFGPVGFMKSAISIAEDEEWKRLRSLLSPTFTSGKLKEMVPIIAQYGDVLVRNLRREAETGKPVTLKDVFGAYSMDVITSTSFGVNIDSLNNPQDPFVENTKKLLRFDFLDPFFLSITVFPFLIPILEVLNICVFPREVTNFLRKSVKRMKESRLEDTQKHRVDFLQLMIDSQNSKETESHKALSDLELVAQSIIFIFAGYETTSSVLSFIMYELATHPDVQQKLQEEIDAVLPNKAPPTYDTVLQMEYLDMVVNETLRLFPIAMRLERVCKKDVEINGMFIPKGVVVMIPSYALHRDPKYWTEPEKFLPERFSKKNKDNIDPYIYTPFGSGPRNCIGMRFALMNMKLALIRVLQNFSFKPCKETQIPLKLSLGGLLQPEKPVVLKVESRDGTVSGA

Row | Compound | activity at 10 µM [%]
4 | N#CC=C1CCN(c2ccc(N3C[C@H](Cn4cc(F)nn4)OC3=O)cc2F)CC1 | 23.6
5 | CC(C#N)=C1CCN(c2ccc(N3C[C@H](Cn4cc(F)nn4)OC3=O)cc2F)CC1 | 21.4

target: T2, MAO-B (Homo sapiens, UniProt P27338); test: Inhibition of human MAO-B assessed as residual activity at 10 uM; conditions: read-out: INH
T2 sequence (P27338 whole entry): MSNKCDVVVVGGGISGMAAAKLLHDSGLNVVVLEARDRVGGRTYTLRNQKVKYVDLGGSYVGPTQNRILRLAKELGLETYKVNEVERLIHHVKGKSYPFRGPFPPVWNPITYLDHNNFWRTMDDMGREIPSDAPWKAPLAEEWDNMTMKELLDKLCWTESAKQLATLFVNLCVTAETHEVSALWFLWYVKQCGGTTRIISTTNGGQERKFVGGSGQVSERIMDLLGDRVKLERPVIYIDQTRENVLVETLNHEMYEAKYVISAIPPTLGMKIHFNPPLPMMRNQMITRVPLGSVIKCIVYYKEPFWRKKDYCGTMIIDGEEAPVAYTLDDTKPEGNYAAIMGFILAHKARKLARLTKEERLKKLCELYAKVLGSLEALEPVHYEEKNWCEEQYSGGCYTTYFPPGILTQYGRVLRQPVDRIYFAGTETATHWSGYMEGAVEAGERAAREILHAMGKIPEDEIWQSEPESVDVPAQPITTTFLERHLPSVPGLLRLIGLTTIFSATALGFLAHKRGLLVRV

Row | Compound | activity at 10 µM [%]
6 | N#CC=C1CCN(c2ccc(N3C[C@H](Cn4cc(F)nn4)OC3=O)cc2F)CC1 | 19.5
7 | CC(=O)NC[C@H]1CN(c2ccc(N3CCOCC3)c(F)c2)C(=O)O1 [LINEZOLID] | 31.4
8 | CC(C#N)=C1CCN(c2ccc(N3C[C@H](Cn4cc(F)nn4)OC3=O)cc2F)CC1 | 34.8

target: CYP2C9 (Homo sapiens, UniProt P11712); test: Inhibition of CYP2C9 (unknown origin) assessed as residual activity at 10 uM; type: ADME; conditions: read-out: INH
Sequence (P11712 whole entry): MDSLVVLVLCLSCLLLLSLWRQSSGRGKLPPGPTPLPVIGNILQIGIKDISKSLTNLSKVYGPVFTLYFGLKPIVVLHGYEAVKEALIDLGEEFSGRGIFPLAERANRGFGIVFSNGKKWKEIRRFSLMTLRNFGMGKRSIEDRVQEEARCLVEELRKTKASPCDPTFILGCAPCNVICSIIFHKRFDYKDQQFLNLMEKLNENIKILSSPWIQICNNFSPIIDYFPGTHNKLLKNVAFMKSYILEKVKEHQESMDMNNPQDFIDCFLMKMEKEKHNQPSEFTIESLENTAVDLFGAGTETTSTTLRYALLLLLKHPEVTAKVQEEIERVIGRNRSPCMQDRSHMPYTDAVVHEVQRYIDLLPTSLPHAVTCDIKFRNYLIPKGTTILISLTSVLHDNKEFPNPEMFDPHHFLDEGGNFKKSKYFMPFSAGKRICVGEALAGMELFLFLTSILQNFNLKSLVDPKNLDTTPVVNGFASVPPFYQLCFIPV

Row | Compound | activity at 10 µM [%]
9 | N#CC=C1CCN(c2ccc(N3C[C@H](Cn4cc(F)nn4)OC3=O)cc2F)CC1 | 66.6
10 | CC(C#N)=C1CCN(c2ccc(N3C[C@H](Cn4cc(F)nn4)OC3=O)cc2F)CC1 | 64.8

test system: Streptococcus pyogenes; test: Antibacterial activity against Streptococcus pyogenes 308A by agar dilution method; type: functional; conditions: not given

Row | Compound | MIC [µg/mL]
11 | N#CC=C1CCN(c2ccc(N3C[C@H](Cn4cc(F)nn4)OC3=O)cc2F)CC1 | 50 (≈ 125 µM)
12 | CC(=O)NC[C@H]1CN(c2ccc(N3CCOCC3)c(F)c2)C(=O)O1 [LINEZOLID] | 0.78 (≈ 2.31 µM)
13 | CC(C#N)=C1CCN(c2ccc(N3C[C@H](Cn4cc(F)nn4)OC3=O)cc2F)CC1 | 6.25 (≈ 15.1 µM)

test system: Staphylococcus aureus; test: Antibacterial activity against methicillin-resistant Staphylococcus aureus C463 by agar dilution method; type: functional; conditions: not given

Row | Compound | MIC [µg/mL]
14 | N#CC=C1CCN(c2ccc(N3C[C@H](Cn4cc(F)nn4)OC3=O)cc2F)CC1 | 50 (≈ 125 µM)
15 | CC(=O)NC[C@H]1CN(c2ccc(N3CCOCC3)c(F)c2)C(=O)O1 [LINEZOLID] | 3.12 (≈ 9.25 µM)
16 | CC(C#N)=C1CCN(c2ccc(N3C[C@H](Cn4cc(F)nn4)OC3=O)cc2F)CC1 | 100 (≈ 241 µM)

test system: Enterococcus faecium; test: Antibacterial activity against vancomycin-resistant Enterococcus faecium C803 by agar dilution method; type: functional; conditions: not given

Row | Compound | MIC [µg/mL]
17 | N#CC=C1CCN(c2ccc(N3C[C@H](Cn4cc(F)nn4)OC3=O)cc2F)CC1 | 50 (≈ 125 µM)
18 | CC(=O)NC[C@H]1CN(c2ccc(N3CCOCC3)c(F)c2)C(=O)O1 [LINEZOLID] | 1.56 (≈ 4.62 µM)
19 | CC(C#N)=C1CCN(c2ccc(N3C[C@H](Cn4cc(F)nn4)OC3=O)cc2F)CC1 | 100 (≈ 241 µM)

test system: Streptococcus agalactiae; test: Antibacterial activity against Streptococcus agalactiae ATCC 2901 by agar dilution method; type: functional; conditions: not given

Row | Compound | MIC [µg/mL]
20 | N#CC=C1CCN(c2ccc(N3C[C@H](Cn4cc(F)nn4)OC3=O)cc2F)CC1 | 100 (≈ 250 µM)
21 | CC(=O)NC[C@H]1CN(c2ccc(N3CCOCC3)c(F)c2)C(=O)O1 [LINEZOLID] | 1.56 (≈ 4.62 µM)
22 | CC(C#N)=C1CCN(c2ccc(N3C[C@H](Cn4cc(F)nn4)OC3=O)cc2F)CC1 | 12.5 (≈ 30.2 µM)

target: CYP2D6 (Homo sapiens, UniProt P10635); test: Inhibition of CYP2D6 (unknown origin) assessed as residual activity at 10 uM; type: ADME; conditions: read-out: INH
Sequence (P10635 whole entry): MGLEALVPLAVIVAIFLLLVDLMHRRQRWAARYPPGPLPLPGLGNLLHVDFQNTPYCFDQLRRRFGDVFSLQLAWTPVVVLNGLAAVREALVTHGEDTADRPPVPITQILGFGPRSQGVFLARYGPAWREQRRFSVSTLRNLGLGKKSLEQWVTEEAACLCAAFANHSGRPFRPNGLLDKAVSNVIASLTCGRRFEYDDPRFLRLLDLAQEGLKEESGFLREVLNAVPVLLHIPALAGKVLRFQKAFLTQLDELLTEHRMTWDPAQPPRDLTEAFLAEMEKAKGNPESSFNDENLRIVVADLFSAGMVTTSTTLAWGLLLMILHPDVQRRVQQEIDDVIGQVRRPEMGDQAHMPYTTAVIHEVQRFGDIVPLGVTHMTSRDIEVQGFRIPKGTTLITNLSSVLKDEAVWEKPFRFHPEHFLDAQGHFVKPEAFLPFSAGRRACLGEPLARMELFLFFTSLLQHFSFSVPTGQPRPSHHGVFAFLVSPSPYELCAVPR

Row | Compound | activity at 10 µM [%]
23 | N#CC=C1CCN(c2ccc(N3C[C@H](Cn4cc(F)nn4)OC3=O)cc2F)CC1 | 117
24 | CC(C#N)=C1CCN(c2ccc(N3C[C@H](Cn4cc(F)nn4)OC3=O)cc2F)CC1 | 106

test system: Staphylococcus; test: Antibacterial activity against methicillin-resistant coagulase negative Staphylococcus by agar dilution method; type: functional; conditions: not given

Row | Compound | MIC [µg/mL]
25 | N#CC=C1CCN(c2ccc(N3C[C@H](Cn4cc(F)nn4)OC3=O)cc2F)CC1 | 100 (≈ 250 µM)
26 | CC(=O)NC[C@H]1CN(c2ccc(N3CCOCC3)c(F)c2)C(=O)O1 [LINEZOLID] | 3.12 (≈ 9.25 µM)
27 | CC(C#N)=C1CCN(c2ccc(N3C[C@H](Cn4cc(F)nn4)OC3=O)cc2F)CC1 | 100 (≈ 241 µM)

test system: Enterococcus faecalis; test: Antibacterial activity against vancomycin-resistant Enterococcus faecalis C474 by agar dilution method; type: functional; conditions: not given

Row | Compound | MIC [µg/mL]
28 | N#CC=C1CCN(c2ccc(N3C[C@H](Cn4cc(F)nn4)OC3=O)cc2F)CC1 | 50 (≈ 125 µM)
29 | CC(=O)NC[C@H]1CN(c2ccc(N3CCOCC3)c(F)c2)C(=O)O1 [LINEZOLID] | 3.12 (≈ 9.25 µM)
30 | CC(C#N)=C1CCN(c2ccc(N3C[C@H](Cn4cc(F)nn4)OC3=O)cc2F)CC1 | 100 (≈ 241 µM)

target: T3, MAO-A (Homo sapiens, UniProt P21397); test: Inhibition of human MAO-A assessed as residual activity at 10 uM; conditions: read-out: INH
T3 sequence (P21397 whole entry): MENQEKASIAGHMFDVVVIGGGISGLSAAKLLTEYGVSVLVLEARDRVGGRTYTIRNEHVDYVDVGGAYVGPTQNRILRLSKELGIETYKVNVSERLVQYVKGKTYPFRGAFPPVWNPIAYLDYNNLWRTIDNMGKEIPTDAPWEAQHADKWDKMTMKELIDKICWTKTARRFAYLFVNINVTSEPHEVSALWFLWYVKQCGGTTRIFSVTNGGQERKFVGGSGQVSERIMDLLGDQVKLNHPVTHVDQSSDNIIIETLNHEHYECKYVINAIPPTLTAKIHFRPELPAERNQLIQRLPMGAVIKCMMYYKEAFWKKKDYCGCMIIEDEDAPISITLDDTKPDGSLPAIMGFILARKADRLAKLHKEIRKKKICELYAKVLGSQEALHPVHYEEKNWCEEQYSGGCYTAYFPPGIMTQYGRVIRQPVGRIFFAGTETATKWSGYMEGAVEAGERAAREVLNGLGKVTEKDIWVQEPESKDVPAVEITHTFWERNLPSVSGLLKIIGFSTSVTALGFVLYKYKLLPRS

Row | Compound | activity at 10 µM [%]
31 | N#CC=C1CCN(c2ccc(N3C[C@H](Cn4cc(F)nn4)OC3=O)cc2F)CC1 | 50.6
32 | CC(=O)NC[C@H]1CN(c2ccc(N3CCOCC3)c(F)c2)C(=O)O1 [LINEZOLID] | 6.79
33 | CC(C#N)=C1CCN(c2ccc(N3C[C@H](Cn4cc(F)nn4)OC3=O)cc2F)CC1 | 10.2

test system: Haemophilus influenzae; test: Antibacterial activity against betalactamase positive Haemophilus influenzae by agar dilution method; type: functional; conditions: not given

Row | Compound | MIC [µg/mL]
34 | N#CC=C1CCN(c2ccc(N3C[C@H](Cn4cc(F)nn4)OC3=O)cc2F)CC1 | 6.25 (≈ 15.6 µM)
35 | CC(=O)NC[C@H]1CN(c2ccc(N3CCOCC3)c(F)c2)C(=O)O1 [LINEZOLID] | 0.78 (≈ 2.31 µM)
36 | CC(C#N)=C1CCN(c2ccc(N3C[C@H](Cn4cc(F)nn4)OC3=O)cc2F)CC1 | 6.25 (≈ 15.1 µM)

test system: Streptococcus pneumoniae; test: Antibacterial activity against penicillin-resistant Streptococcus pneumoniae C402 by agar dilution method; type: functional; conditions: not given

Row | Compound | MIC [µg/mL]
37 | N#CC=C1CCN(c2ccc(N3C[C@H](Cn4cc(F)nn4)OC3=O)cc2F)CC1 | 6.25 (≈ 15.6 µM)
38 | CC(=O)NC[C@H]1CN(c2ccc(N3CCOCC3)c(F)c2)C(=O)O1 [LINEZOLID] | 0.78 (≈ 2.31 µM)
39 | CC(C#N)=C1CCN(c2ccc(N3C[C@H](Cn4cc(F)nn4)OC3=O)cc2F)CC1 | 6.25 (≈ 15.1 µM)
